How the values were obtained:
Type in all cases: physicochemical
[1] = Water solubility from light scattering (at 500 nm) of dispersions of the high-boiling solvent in water
Procedure: (§1) Water solubilities were obtained from plots of light scattering (at 500 nm) of dispersions of the high-boiling solvent in water versus concentration. The light scattering density goes to zero at the solubility limit, when dispersions of high-boiling solvent are diluted. […] Viscosities reported in Table I were measured using a Brookfield cone/plate viscometer. Solvents of high polarity and/or polarizability are often needed to provide suitably bathochromic hues for the types of dyes commonly encountered in color photographic materials. Dye C1, whose structure is provided after Table I, is representative of such dyes. The visible absorption maxima (Lambda max) values for C1, measured with a Perkin Elmer Lambda 2S spectrophotometer, are provided in Table I as measures of solvent polarity/polarizability.

[2] = Viscosity measured using a Brookfield cone/plate viscometer
Procedure: Water solubilities were obtained from plots of light scattering (at 500 nm) of dispersions of the high-boiling solvent in water versus concentration. The light scattering density goes to zero at the solubility limit, when dispersions of high-boiling solvent are diluted. Values of log P calculated using MEDCHEM version 3.54 are also given in Table I and serve as rough indicators of water solubility. Viscosities reported in Table I were measured using a Brookfield cone/plate viscometer. Solvents of high polarity and/or polarizability are often needed to provide suitably bathochromic hues for the types of dyes commonly encountered in color photographic materials. Dye C1, whose structure is provided after Table I, is representative of such dyes. The visible absorption maxima (Lambda max) values for C1, measured with a Perkin Elmer Lambda 2S spectrophotometer, are provided in Table I as measures of solvent polarity/polarizability.

[3] = Visible absorption maximum (Lambda max) of Dye C1 in the high-boiling solvent, as measure of solvent polarity/polarizability; settings: Perkin Elmer Lambda 2S spectrophotometer
Procedure: as §1

[4] = Lambda max of the yellow dye produced from Coupler Y-1 on development; settings: yellow dye from Y-1, at a blue density of about 1.0
Procedure: For this example, Coupler Y-1 (structure below) was dispersed and coated with comparative high-boiling solvent B1 and with high-boiling solvent A2 of this invention. The dispersions were prepared by adding an oil phase containing a 1:1:3 weight ratio of Y-1:high-boiling solvent: ethyl acetate to an aqueous phase containing gelatin and the dispersing agent ALKANOL XC (mixed isomers of triisopropyl-2-naphthalene sulfonic acid, sodium salt, DuPont) in a 10:1 weight ratio. The mixture was then passed through a colloid mill to disperse the oil in the aqueous phase as small particles. On coating, the ethyl acetate auxiliary solvent evaporates. […]
After hardening, samples of each of the films in Table II were given a sensitometric white light exposure and processed using the KODAK FLEXICOLOR C-41 procedure described in Table III. Measurements of status M blue density versus exposure were made for each processed film strip, and photographic contrast (gamma) was determined from the slopes of such plots. […] The gamma value of 2.45 obtained with solvent A2 of this invention in coating B is similar to the gamma value of 2.63 obtained from comparative solvent B1 in coating A. Spectra of the yellow dye produced from Y-1 on development were measured at a blue density of about 1.0 using a Perkin Elmer Lambda 2S spectrophotometer. […]

Structure (SMILES)	Water Solubility [1]	Viscosity [2]	Lambda max of Dye C1 [3]	Lambda max [4]
Cc1ccc(C(=O)OCCC(C)OC(=O)c2ccc(C)cc2)cc1 (centres unmarked) [A1]	1.2 µg/mL	265 centipoise	672 nm	
CCCCC(COC(=O)c1ccccc1)OC(=O)c1ccccc1 (centres unmarked) [A2]	1.1 µg/mL	157 centipoise	672 nm	449 nm
Cc1cccc(C(=O)OCCC(C)OC(=O)c2cccc(C)c2)c1 (centres unmarked) [A3]	1.9 µg/mL	295 centipoise	672 nm	
O=C(OCCCCCOC(=O)c1ccccc1)c1ccccc1 [A4]	2.4 µg/mL	70 centipoise	674 nm	
CCCC(COC(=O)c1ccccc1)OC(=O)c1ccccc1 (centres unmarked) [A5]	1.5 µg/mL	122 centipoise	673 nm	
CCCCOC(=O)c1ccccc1C(=O)OCCCC [B1, dibutyl phthalate, reference compound]				449 nm
CCCCC(CC)COC(=O)c1ccccc1 (centres unmarked) [B3, reference compound]		6 centipoise	661 nm	
O=C(OCCc1ccccc1)c1ccccc1 [B4, reference compound]	10 µg/mL			
